Data taken from BigSolDB 2.1.

Nc1cccc(S(=O)(=O)c2cccc(N)c2)c1
solubility (mole fraction)
Details | 283.15 K | 288.15 K | 293.15 K | 298.15 K | 303.15 K | 308.15 K | 313.15 K | 318.15 K | 323.15 K | 328.15 K
in 1,4-dioxane | 0.00411 | 0.00462 | 0.00538 | 0.00652 | 0.0083 | 0.0102 | 0.0123 | 0.0147 | 0.0169 | 0.0194
in DMF | 0.0869 | 0.0916 | 0.0989 | 0.11 | 0.12 | 0.132 | 0.146 | 0.162 | 0.181 | 0.2
in acetonitrile | 0.00609 | 0.00709 | 0.0087 | 0.0105 | 0.0127 | 0.0151 | 0.0182 | 0.0225 | 0.0272 | 0.033
in cyclohexane | 2.7e-06 | 3.6e-06 | 5.1e-06 | 7.7e-06 | 1.09e-05 | 1.51e-05 | 2.03e-05 | 2.78e-05 | 3.7e-05 | 4.86e-05
in ethanol | 0.00237 | 0.00256 | 0.00297 | 0.00349 | 0.00415 | 0.00492 | 0.00574 | 0.00661 | 0.00738 | 0.00837
in ethyl acetate | 0.0146 | 0.0162 | 0.0184 | 0.021 | 0.0243 | 0.0278 | 0.0321 | 0.037 | 0.0424 | 0.0485
in ethylene glycol | 0.00458 | 0.00515 | 0.00595 | 0.00701 | 0.00843 | 0.0101 | 0.012 | 0.0144 | 0.0168 | 0.0194
in isobutanol | 0.000586 | 0.000665 | 0.000784 | 0.000952 | 0.00115 | 0.00137 | 0.00166 | 0.002 | 0.00234 | 0.00271
in isopropanol | 0.00106 | 0.00121 | 0.00148 | 0.00196 | 0.00258 | 0.00326 | 0.00406 | 0.005 | 0.00611 | 0.00731
in methanol | 0.00319 | 0.00351 | 0.00397 | 0.00482 | 0.00604 | 0.00744 | 0.00905 | 0.0107 | 0.0125 | 0.0152
in n-butanol | 0.00109 | 0.00121 | 0.00142 | 0.00171 | 0.00205 | 0.00246 | 0.00294 | 0.00343 | 0.00396 | 0.00452
in n-heptanol | 0.000699 | 0.000776 | 0.000898 | 0.00106 | 0.0013 | 0.0016 | 0.002 | 0.00242 | 0.0029 | 0.00346
in n-propanol | 0.00142 | 0.00152 | 0.00177 | 0.00214 | 0.00254 | 0.00301 | 0.00356 | 0.00418 | 0.00496 | 0.0059
in water | 1.52e-05 | 1.9e-05 | 2.51e-05 | 3.32e-05 | 4.29e-05 | 5.62e-05 | 7.79e-05 | 0.000106 | 0.000145 | 0.000198
